Data as given in patent US6469028B1, “Synthesis and use of retinoid compounds having negative hormone and/or anatgonist activities” (Allergan, Inc., priority 1995, dated 2002).

Key:
Assay in all cases: Holoreceptor transactivation assay
Assay type in all cases: cell-based
[1] = tested on: RXRβ; details: relative to all trans retinoic acid
Description: (§1) A holoreceptor transactivation assay and a ligand binding assay which measure the antagonist/agonist like activity of the compounds of the invention, or their ability to bind to the several retinoid receptor subtypes, respectively, are described in published PCT Application No. WO93/11755 (particularly on pages 30-33 and 37-41) published on Jun. 24, 1993, the specification of which is also incorporated herein by reference. A description of the holoreceptor transactivation assay is also provided below.
(§2) CV1 cells (5,000 cells/well) were transfected with an RAR reporter plasmid MTV-TREp-LUC (50 ng) along with one of the RAR expression vectors (10 ng) in an automated 96-well format by the calcium phosphate procedure of Heyman et al. Cell 68: 397-406. For RXR-α and RXR-γ transactivation assays, an RXR-responsive reporter plasmid CRBPII-tk-LUC (50 ng) along with the appropriate RXR expression vectors (10 ng) was used substantially as described by Heyman et al. above, and Allegretto et al. J. Biol. Chem. 268: 26625-26633. For RXR-β transactivation assays, an RXR-responsive reporter plasmid CPRE-tk-LUC ([…]) along with RXR-β expression vector ([…]) was used as described in above. These reporters contain DRI elements from human CRBPII and certain DRI elements from promotor, respectively (see Mangelsdorf et al. The Retinoids: Biology Chemistry and Medicine, pp. 319-349, Raven Press Ltd., New York and Heyman et al., cited above). A β-galactosidase (50 ng) expression vector was used as an internal control in the transfections to normalize for variations in transfection efficiency. The cells were transfected in triplicate for 6 hours, followed by incubation with retinoids for 36 hours, and the extracts were assayed for luciferase and […] activities. The detailed experimental procedure for holoreceptor transactivations has been described in Heyman et al. above, and Allegretto et al. cited above. The results obtained in this assay are expressed in EC50 numbers, as they are also in the chimeric receptor transactivation assay. The Heyman et al. Cell 68: 397-406, Allegretto et al. J. Biol. Chem. 268: 26625-26633, and Mangelsdorf et al. The Retinoids: Biology, Chemistry, and Medicine, pp. 319-349, Raven Press Ltd., New York, are expressly incorporated herein by reference. The results of ligand binding assay are expressed in Kd numbers. (See Cheng et al. Biochemical Pharmacology 22: 3099-3108, expressly incorporated herein by reference.)

[2] = molecular target: T1, RXRγ (Mus musculus, UniProt P28705); details: relative to all trans retinoic acid; read-out: Transactivation Assay Efficacy (% of RA activity) RXRγ
T1 construct: expressed in transfected cells; host or cells: CV1 cells
T1 sequence (P28705 1-463): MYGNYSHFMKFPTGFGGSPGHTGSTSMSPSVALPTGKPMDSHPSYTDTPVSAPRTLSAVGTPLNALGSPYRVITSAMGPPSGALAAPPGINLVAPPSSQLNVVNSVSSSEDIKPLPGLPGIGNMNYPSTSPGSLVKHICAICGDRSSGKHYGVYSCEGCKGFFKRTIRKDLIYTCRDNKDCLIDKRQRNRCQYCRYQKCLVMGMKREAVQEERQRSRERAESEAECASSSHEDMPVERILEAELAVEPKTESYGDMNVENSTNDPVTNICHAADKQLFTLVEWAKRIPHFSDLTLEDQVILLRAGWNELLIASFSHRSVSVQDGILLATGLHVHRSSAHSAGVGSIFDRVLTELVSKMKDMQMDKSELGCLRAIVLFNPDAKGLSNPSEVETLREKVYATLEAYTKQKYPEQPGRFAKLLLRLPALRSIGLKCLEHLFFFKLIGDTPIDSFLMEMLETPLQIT
Description: as §1, §2

[3] = molecular target: T2, RXRα (Homo sapiens, UniProt P19793); details: relative to all trans retinoic acid; read-out: Transactivation Assay Efficacy (% of RA activity) RXRα
T2 construct: expressed in transfected cells; host or cells: CV1 cells
T2 sequence (P19793 1-462): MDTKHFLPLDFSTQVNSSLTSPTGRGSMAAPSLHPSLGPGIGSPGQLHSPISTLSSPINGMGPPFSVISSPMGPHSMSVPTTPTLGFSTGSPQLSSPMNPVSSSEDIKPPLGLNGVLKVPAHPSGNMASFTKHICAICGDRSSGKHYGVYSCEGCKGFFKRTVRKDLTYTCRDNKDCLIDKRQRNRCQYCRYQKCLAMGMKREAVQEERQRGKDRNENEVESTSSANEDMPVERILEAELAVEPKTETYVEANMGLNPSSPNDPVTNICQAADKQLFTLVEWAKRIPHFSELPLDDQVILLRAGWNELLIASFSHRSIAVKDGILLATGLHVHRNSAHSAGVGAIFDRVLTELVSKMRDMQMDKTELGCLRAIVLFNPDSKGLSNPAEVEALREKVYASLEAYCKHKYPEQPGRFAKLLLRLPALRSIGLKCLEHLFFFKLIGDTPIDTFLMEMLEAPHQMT
Description: as §1, §2

Row | SMILES | Emax [2] | Emax [3] | Transactivation Assay Efficacy (% of RA activity) RXRβ [1]
1 | Cc1ccc(C2=CCC(C)(C)c3ccc(N=Nc4ccc(C(=O)O)cc4)cc32)cc1 [Compound 46b, 4-[(5,6-dihydro-5,5-dimethyl-8-(4-methylphenyl)-2-naphthalenyl)azo]-benzoic acid] | 4% | 2% | 0.00 % of RA activity
2 | CC(/C=C/C=C(\C)c1ccc2c(c1)C(c1ccc(C)cc1)=CCC2(C)C)=C\C(=O)O [Compound 52, (E,E,E)-3-methyl-7-(5,6-dihydro-5,5-dimethyl-8-(4-methylphenyl)-2-naphthalenyl)-2,4,6-octatrienoic acid] | 10% | 0% | 0.00 % of RA activity
3 | Cc1ccc(C2=CCC(C)(C)c3ccc(C#Cc4ccc(C(=O)O)cc4)cc32)cc1 [Compound 60, 4-[(5,6-dihydro-5,5-dimethyl-8-(4-methylphenyl)-2-naphthalenyl)ethynyl]benzoic acid] | 3% | 3% | 0.00 % of RA activity
4 | CC(C)(C)c1ccc(C2=CCC(C)(C)c3ccc(C#Cc4ccc(C(=O)O)cc4)cc32)cc1 [Compound 61, 4-[(5,6-Dihydro-5,5-dimethyl-8-(4-(1,1-dimethylethyl)phenyl)-2-naphthalenyl)ethynyl]benzoic acid] | 3% | 1% | 0.00 % of RA activity

Continued, in another order:

Row | Emax [2] | Emax [3] | SMILES | Transactivation Assay Efficacy (% of RA activity) RXRβ [1]
5 | 1% | 1% | Cc1ccc(C2=CCC(C)(C)c3ccc(C(=S)Nc4ccc(C(=O)O)c(F)c4)cc32)cc1 [Compound 63, 2-fluoro-4-[[(5,6-dihydro-5,5-dimethyl-8-(4-methylphenyl)-2-naphthalenyl)thiocarbonyl]amino]-benzoic acid] | 0.00 % of RA activity
6 | 3% | 1% | Cc1ccc(C2=CCC(C)(C)c3cc(C(=O)C=Cc4ccc(C(=O)O)cc4)ccc32)cc1 [Compound 101, 4-[3-oxo-3-(7,8-dihydro-5-(4-methylphenyl)-8,8-dimethyl-2-naphthalenyl)-1-propenyl]-benzoic acid] | 0.00 % of RA activity
7 | 2% | 0% | CC1(C)CC=C(c2ccccc2)c2ccc(C(=O)C=Cc3ccc(C(=O)O)cc3)cc21 [Compound 103, 4-[3-oxo-3-(7,8-dihydro-5-phenyl-8,8-dimethyl-2-naphthalenyl)-1-propenyl]-benzoic acid] | 0.0 % of RA activity
